# Test results reported in patent publication US9695155B2, “Herbicidal substituted pyrimidinyloxy benzene compounds” (E. I. DU PONT DE NEMOURS AND COMPANY, priority 2013, dated 2017).
# Key:
# [1] = test system: nightshade; experiment: Test E preemergence; format: in vivo, Solanum ptycanthum; settings: for Nightshade plant response rating: scale 0 to 100 (0 no effect, 100 complete control); for Plant response rating, Nightshade: 125 g ai/ha, scale 0 to 100, 0 no effect, 100 complete control
# Summary of the method: (§1)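 Test chemicals formulated in a non-phytotoxic solvent mixture containing a surfactant were applied preemergence to seeds in silt loam soil or postemergence to plants at the 1- to 4-leaf stage in potting mix. After 14 to 21 days in a greenhouse, injury was visually rated against controls on a 0-100 scale (0 = no effect, 100 = complete control).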
# [2] = test system: ragweed; experiment: Test E preemergence; format: in vivo, Ambrosia elatior; settings: for Ragweed plant response rating: scale 0 to 100 (0 no effect, 100 complete control); for Plant response rating, Ragweed: 125 g ai/ha, scale 0 to 100, 0 no effect, 100 complete control
# Summary of the method: as §1
# [3] = test system: ragweed; experiment: Test A postemergence; format: in vivo, Ambrosia elatior; settings: 0 to 100 scale where 0 is no effect and 100 is complete control
# Summary of the method: (§2)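 Injury scores run from 0, no effect, to 100, complete control, judged by eye against untreated plants roughly 10 days after treatment. Chemicals carried a surfactant in a non-phytotoxic solvent and went onto loam–sand soil preemergence or onto one- to two-leaf seedlings postemergence.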
# [4] = test system: green foxtail; experiment: Test E preemergence; format: in vivo, Setaria viridis; settings: for Foxtail, Green plant response rating: scale 0 to 100 (0 no effect, 100 complete control); for Plant response rating, Foxtail, Green: 125 g ai/ha, scale 0 to 100, 0 no effect, 100 complete control
# Summary of the method: as §1
# [5] = test system: Italian ryegrass; experiment: Test A postemergence; format: in vivo, Lolium multiflorum; settings: 0 to 100 scale where 0 is no effect and 100 is complete control
# Summary of the method: as §2
# [6] = test system: johnsongrass; experiment: Test E preemergence; format: in vivo, Sorghum halepense; settings: for Johnsongrass plant response rating: scale 0 to 100 (0 no effect, 100 complete control); for Plant response rating, Johnsongrass: 125 g ai/ha, scale 0 to 100, 0 no effect, 100 complete control
# Summary of the method: as §1
# [7] = test system: fall panicum; experiment: Test E preemergence; format: in vivo, Panicum dichotomiflorum; settings: for Panicum, Fall plant response rating: scale 0 to 100 (0 no effect, 100 complete control); for Plant response rating, Panicum, Fall: 125 g ai/ha, scale 0 to 100, 0 no effect, 100 complete control
# Summary of the method: as §1
# [8] = test system: dayflower; experiment: Test E preemergence; format: in vivo, Commelina virginica; settings: for Dayflower, VA plant response rating: scale 0 to 100 (0 no effect, 100 complete control); for Plant response rating, Dayflower, VA: 125 g ai/ha, scale 0 to 100, 0 no effect, 100 complete control
# Summary of the method: as §1
# [9] = test system: arrowleaf sida; experiment: Test E preemergence; format: in vivo, Sida rhombifolia; settings: for Arrowleaf Sida plant response rating: scale 0 to 100 (0 no effect, 100 complete control); for Plant response rating, Arrowleaf Sida: scale 0 to 100, 0 no effect, 100 complete control
# Summary of the method: as §1
# [10] = test system: large (Lg) crabgrass; experiment: Test E preemergence; format: in vivo, Digitaria sanguinalis; settings: for Crabgrass, Large plant response rating: scale 0 to 100 (0 no effect, 100 complete control); for Plant response rating, Crabgrass, Large: 125 g ai/ha, scale 0 to 100, 0 no effect, 100 complete control
# Summary of the method: as §1
# [11] = test system: morningglory; experiment: Test E preemergence; format: in vivo, Ipomoea coccinea; settings: for Morningglory plant response rating: scale 0 to 100 (0 no effect, 100 complete control); for Plant response rating, Morningglory: 125 g ai/ha, scale 0 to 100, 0 no effect, 100 complete control
# Summary of the method: as §1
# [12] = test system: velvetleaf; experiment: Test E preemergence; format: in vivo, Abutilon theophrasti; settings: for Velvetleaf plant response rating: scale 0 to 100 (0 no effect, 100 complete control); for Plant response rating, Velvetleaf: 125 g ai/ha, scale 0 to 100, 0 no effect, 100 complete control
# Summary of the method: as §1
# [13] = test system: hairy beggarticks; experiment: Test E preemergence; format: in vivo, Bidens pilosa; settings: for Beggarticks plant response rating: scale 0 to 100 (0 no effect, 100 complete control); for Plant response rating, Beggarticks: scale 0 to 100, 0 no effect, 100 complete control
# Summary of the method: as §1
smiles,measurement,setting,value
N#Cc1cccc(Oc2ncc(F)cn2)c1-n1cc(I)cn1 [Compound 86],Nightshade plant response rating,[1]; 16 g ai/ha,0
same,Nightshade plant response rating,[1]; 31 g ai/ha,0
same,Nightshade plant response rating,[1]; 62 g ai/ha,0
same,"Plant response rating, Nightshade",[1],98
same,Ragweed plant response rating,[2]; 16 g ai/ha,0
same,Ragweed plant response rating,[2]; 31 g ai/ha,0
same,Ragweed plant response rating,[2]; 62 g ai/ha,5
same,"Plant response rating, Ragweed",[2],20
same,"Plant response rating, Ragweed",[3]; 125 g ai/ha,90
same,"Plant response rating, Ragweed",[3]; 500 g ai/ha,100
same,"Foxtail, Green plant response rating",[4]; 16 g ai/ha,0
same,"Foxtail, Green plant response rating",[4]; 31 g ai/ha,0
same,"Foxtail, Green plant response rating",[4]; 62 g ai/ha,15
same,"Plant response rating, Foxtail, Green",[4],75
same,"Plant response rating, Ryegrass, Italian",[5]; 125 g ai/ha,80
same,"Plant response rating, Ryegrass, Italian",[5]; 500 g ai/ha,100
same,Johnsongrass plant response rating,[6]; 16 g ai/ha,0
same,Johnsongrass plant response rating,[6]; 31 g ai/ha,0
same,Johnsongrass plant response rating,[6]; 62 g ai/ha,65
same,"Plant response rating, Johnsongrass",[6],65
same,"Panicum, Fall plant response rating",[7]; 16 g ai/ha,0
same,"Panicum, Fall plant response rating",[7]; 31 g ai/ha,35
same,"Panicum, Fall plant response rating",[7]; 62 g ai/ha,90
same,"Plant response rating, Panicum, Fall",[7],100
same,"Dayflower, VA plant response rating",[8]; 16 g ai/ha,0
same,"Dayflower, VA plant response rating",[8]; 31 g ai/ha,0
same,"Dayflower, VA plant response rating",[8]; 62 g ai/ha,30
same,"Plant response rating, Dayflower, VA",[8],65
same,Arrowleaf Sida plant response rating,"[9]; 16 g ai/ha, preemergence",0
same,Arrowleaf Sida plant response rating,"[9]; 31 g ai/ha, preemergence",5
same,"Plant response rating, Arrowleaf Sida","[9]; Preemergence, 62 g ai/ha",60
same,"Plant response rating, Arrowleaf Sida","[9]; preemergence, 125 g ai/ha",100
same,"Crabgrass, Large plant response rating",[10]; 16 g ai/ha,0
same,"Crabgrass, Large plant response rating",[10]; 31 g ai/ha,0
same,"Crabgrass, Large plant response rating",[10]; 62 g ai/ha,95
same,"Plant response rating, Crabgrass, Large",[10],98
same,Morningglory plant response rating,[11]; 16 g ai/ha,0
same,Morningglory plant response rating,[11]; 31 g ai/ha,10
same,Morningglory plant response rating,[11]; 62 g ai/ha,30
same,"Plant response rating, Morningglory",[11],75
same,Velvetleaf plant response rating,[12]; 16 g ai/ha,0
same,Velvetleaf plant response rating,[12]; 31 g ai/ha,0
same,Velvetleaf plant response rating,[12]; 62 g ai/ha,50
same,"Plant response rating, Velvetleaf",[12],80
same,Beggarticks plant response rating,"[13]; 16 g ai/ha, preemergence",0
same,Beggarticks plant response rating,"[13]; 31 g ai/ha, preemergence",0
same,"Plant response rating, Beggarticks","[13]; Preemergence, 62 g ai/ha",35
same,"Plant response rating, Beggarticks","[13]; preemergence, 125 g ai/ha",70
N#Cc1cccc(Oc2ncc(Br)cn2)c1-n1cc(I)cn1 [Compound 88],Nightshade plant response rating,[1]; 31 g ai/ha,0
same,"Plant response rating, Nightshade",[1],0
same,Ragweed plant response rating,[2]; 16 g ai/ha,0
same,Ragweed plant response rating,[2]; 31 g ai/ha,0
same,Ragweed plant response rating,[2]; 62 g ai/ha,0
same,"Plant response rating, Ragweed",[2],65
same,"Plant response rating, Ragweed",[3]; 125 g ai/ha,10
same,"Plant response rating, Ragweed",[3]; 500 g ai/ha,30
same,"Foxtail, Green plant response rating",[4]; 16 g ai/ha,0
same,"Foxtail, Green plant response rating",[4]; 31 g ai/ha,0
same,"Foxtail, Green plant response rating",[4]; 62 g ai/ha,0
same,"Plant response rating, Foxtail, Green",[4],35
same,"Plant response rating, Ryegrass, Italian",[5]; 125 g ai/ha,50
same,"Plant response rating, Ryegrass, Italian",[5]; 500 g ai/ha,90
same,Johnsongrass plant response rating,[6]; 16 g ai/ha,0
same,Johnsongrass plant response rating,[6]; 31 g ai/ha,0
same,Johnsongrass plant response rating,[6]; 62 g ai/ha,15
same,"Plant response rating, Johnsongrass",[6],15
same,"Panicum, Fall plant response rating",[7]; 16 g ai/ha,0
same,"Panicum, Fall plant response rating",[7]; 31 g ai/ha,0
same,"Panicum, Fall plant response rating",[7]; 62 g ai/ha,0
same,"Plant response rating, Panicum, Fall",[7],10
same,"Dayflower, VA plant response rating",[8]; 16 g ai/ha,0
same,"Dayflower, VA plant response rating",[8]; 31 g ai/ha,0
same,"Dayflower, VA plant response rating",[8]; 62 g ai/ha,0
same,"Plant response rating, Dayflower, VA",[8],60
same,Arrowleaf Sida plant response rating,"[9]; 16 g ai/ha, preemergence",30
same,Arrowleaf Sida plant response rating,"[9]; 31 g ai/ha, preemergence",40
same,"Plant response rating, Arrowleaf Sida","[9]; Preemergence, 62 g ai/ha",10
same,"Plant response rating, Arrowleaf Sida","[9]; preemergence, 125 g ai/ha",35
same,"Crabgrass, Large plant response rating",[10]; 16 g ai/ha,0
same,"Crabgrass, Large plant response rating",[10]; 31 g ai/ha,35
same,"Crabgrass, Large plant response rating",[10]; 62 g ai/ha,65
same,"Plant response rating, Crabgrass, Large",[10],95
same,Morningglory plant response rating,[11]; 16 g ai/ha,0
same,Morningglory plant response rating,[11]; 31 g ai/ha,0
same,Morningglory plant response rating,[11]; 62 g ai/ha,10
same,"Plant response rating, Morningglory",[11],15
same,Velvetleaf plant response rating,[12]; 16 g ai/ha,0
same,Velvetleaf plant response rating,[12]; 31 g ai/ha,0
same,Velvetleaf plant response rating,[12]; 62 g ai/ha,20
same,"Plant response rating, Velvetleaf",[12],65
same,Beggarticks plant response rating,"[13]; 16 g ai/ha, preemergence",0
same,Beggarticks plant response rating,"[13]; 31 g ai/ha, preemergence",0
same,"Plant response rating, Beggarticks","[13]; Preemergence, 62 g ai/ha",0
same,"Plant response rating, Beggarticks","[13]; preemergence, 125 g ai/ha",0
"FC(F)(F)COc1cnn(-c2ccccc2Oc2ncc(Cl)cn2)c1 [Compound 138, 5-chloro-2-[2-[4-(2,2,2-trifluoroethoxy)-1H-pyrazol-1-yl]phenoxy]pyrimidine]",Nightshade plant response rating,[1]; 16 g ai/ha,0
same,Nightshade plant response rating,[1]; 31 g ai/ha,0
same,Nightshade plant response rating,[1]; 62 g ai/ha,98
same,"Plant response rating, Nightshade",[1],90
same,Ragweed plant response rating,[2]; 16 g ai/ha,0
same,Ragweed plant response rating,[2]; 31 g ai/ha,0
same,Ragweed plant response rating,[2]; 62 g ai/ha,0
same,"Plant response rating, Ragweed",[2],0
same,Ragweed plant response rating,[3]; 125 g ai/ha,30
same,"Plant response rating, Ragweed",[3]; 500 g ai/ha,60
same,"Foxtail, Green plant response rating",[4]; 16 g ai/ha,0
same,"Foxtail, Green plant response rating",[4]; 31 g ai/ha,0
same,"Foxtail, Green plant response rating",[4]; 62 g ai/ha,20
same,"Plant response rating, Foxtail, Green",[4],98
same,"Ryegrass, Italian plant response rating",[5]; 125 g ai/ha,40
same,"Plant response rating, Ryegrass, Italian",[5]; 500 g ai/ha,90
same,Johnsongrass plant response rating,[6]; 16 g ai/ha,0
same,Johnsongrass plant response rating,[6]; 31 g ai/ha,0
same,Johnsongrass plant response rating,[6]; 62 g ai/ha,35
same,"Plant response rating, Johnsongrass",[6],40
same,"Panicum, Fall plant response rating",[7]; 16 g ai/ha,0
same,"Panicum, Fall plant response rating",[7]; 31 g ai/ha,25
same,"Panicum, Fall plant response rating",[7]; 62 g ai/ha,100
same,"Plant response rating, Panicum, Fall",[7],100
same,"Dayflower, VA plant response rating",[8]; 16 g ai/ha,0
same,"Dayflower, VA plant response rating",[8]; 31 g ai/ha,5
same,"Dayflower, VA plant response rating",[8]; 62 g ai/ha,30
same,"Plant response rating, Dayflower, VA",[8],40
same,Arrowleaf Sida plant response rating,"[9]; 16 g ai/ha, preemergence",0
same,Arrowleaf Sida plant response rating,"[9]; 31 g ai/ha, preemergence",0
same,Arrowleaf Sida plant response rating,"[9]; 62 g ai/ha, preemergence",40
same,"Plant response rating, Arrowleaf Sida","[9]; preemergence, 125 g ai/ha",100
same,"Crabgrass, Large plant response rating",[10]; 16 g ai/ha,0
same,"Crabgrass, Large plant response rating",[10]; 31 g ai/ha,70
same,"Crabgrass, Large plant response rating",[10]; 62 g ai/ha,98
same,"Plant response rating, Crabgrass, Large",[10],100
same,Morningglory plant response rating,[11]; 16 g ai/ha,0
same,Morningglory plant response rating,[11]; 31 g ai/ha,0
same,Morningglory plant response rating,[11]; 62 g ai/ha,0
same,"Plant response rating, Morningglory",[11],40
same,Velvetleaf plant response rating,[12]; 16 g ai/ha,40
same,Velvetleaf plant response rating,[12]; 31 g ai/ha,70
same,Velvetleaf plant response rating,[12]; 62 g ai/ha,90
same,"Plant response rating, Velvetleaf",[12],100
same,Beggarticks plant response rating,"[13]; 16 g ai/ha, preemergence",0
same,Beggarticks plant response rating,"[13]; 31 g ai/ha, preemergence",0
same,Beggarticks plant response rating,"[13]; 62 g ai/ha, preemergence",0
same,"Plant response rating, Beggarticks","[13]; preemergence, 125 g ai/ha",0
